Assay results: patent publication US20220227758A1, “IMIDAZOPYRIDINE COMPOUND AS IRAK4 INHIBITOR” (MEDSHINE DISCOVERY INC., priority 2019, published 2022)

How the values were obtained:
[1] = target: T1, human IRAK4 (Homo sapiens, UniProt Q9NWZ3); experiment: 33P-labeled kinase activity assay (in vitro enzymatic activity evaluation); format: biochemical
T1 construct: purchased Reaction Biology Corp
T1 sequence (Q9NWZ3 1-460): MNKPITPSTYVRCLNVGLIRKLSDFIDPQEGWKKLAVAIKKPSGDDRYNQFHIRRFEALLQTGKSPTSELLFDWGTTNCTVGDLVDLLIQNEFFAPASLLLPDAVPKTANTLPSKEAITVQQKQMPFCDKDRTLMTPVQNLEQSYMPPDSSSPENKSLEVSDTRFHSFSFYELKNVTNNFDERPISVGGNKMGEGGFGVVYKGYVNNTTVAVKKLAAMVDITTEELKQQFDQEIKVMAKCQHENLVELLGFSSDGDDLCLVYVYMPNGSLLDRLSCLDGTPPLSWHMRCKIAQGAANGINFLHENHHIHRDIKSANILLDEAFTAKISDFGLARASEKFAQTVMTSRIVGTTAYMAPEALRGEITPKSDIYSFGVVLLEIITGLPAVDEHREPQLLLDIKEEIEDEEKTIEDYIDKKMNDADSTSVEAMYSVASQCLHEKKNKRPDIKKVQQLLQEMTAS
Description: The inhibitory activity of the test compounds against human IRAK4 was evaluated by determining IC50 values in a ^33P-labeled kinase activity assay (Reaction Biology Corp).
Buffer conditions: 20 mM Hepes (pH 7.5), 10 mM MgCl2, 1 mM EGTA, 0.02% Brij35, 0.02 mg/mL BSA, 0.1 mM Na3VO4, 2 mM DTT, 1% DMSO.
Procedures: The test compound was dissolved in DMSO at room temperature to prepare a 10 mM solution for later use. The substrates were dissolved in freshly formulated buffers. The kinase was added, and mixture was stirred homogeneously. The DMSO solution containing the test compound was added to the above mixed reaction system by an acoustic technique (Echo 550). After 15 minutes of incubation, the reaction was started by adding ^33P-ATP. After 120 minutes of reaction at room temperature, the resulting solution was loaded on P81 ion exchange chromatography paper sheet (Whatman #3698-915). After repeated washings with 0.75% phosphoric acid solution, the radioactivity of the phosphorylated substrate residue on the paper sheet was measured. The kinase activity data are shown as a comparison of the kinase activity of the test compound and the kinase activity of the blank (DMSO only) and a curve was fitted using Prism4 software (GraphPad) to give IC50 values, with the experimental results shown in Table 5.

[2] = system: THP-1 cells; experiment: cells; settings: Homo sapiens, THP-1, 18 h, read-out: THP-1/IC50
Description: TNF-α ELISA in THP-1 cells
THP-1 human acute […] leukemia cells were purchased from ATCC (Cat # TIB-202) and incubated in a5% CO2 incubator at 37° C. The medium was RPMI1640 (Gibco, Cat # 22400-105), the supplementary was 10% FBS (Gibco, Cat # 10091148); 1% PenStrep (Gibco, Cat # 15140); 0.05 mM 2-mercaptoethanol (Sigma, Cat # M6250).
TNF-α content in the cell culture supernatant was measured by a TNF-α Elisa kit. TNF-α was produced by stimulation of THP-1 cells with 150 ng/mL LPS (Sigma, Cat # L6529). Normal THP-1 cells in logarithmic phase were seeded in 96-well plates (Corning #3599) at a certain concentration (1×10^5/100 μL) and then incubated in an incubator. After two hours, 16.7 μL of test compound of different concentrations (8×final concentration) was added and the mixture was incubated in the incubator. After one hour, 16.7 μL of 1200 ng/mL LPS was added and the mixture was incubated in the incubator. After 18 h, the culture was centrifuged and the probe of the supernatant was collected. The TNF-α content was measured by a TNF-α Elisa kit. Finally, the OD signals (OD450-OD570) were read on an envision plate reader.
The OD450-OD570 signals were converted to percent inhibition.
Inhibition%=(ZPE−sample)/(ZPE−HPE)×100.
“HPE” represents the OD450-OD570 signal value of the control well without LPS-stimulated cells, and “ZPE” represents the OD450-OD570 signal value of the control well with LPS-stimulated cells.
IC50 values for compounds were calculated by XLFit in the Excel.
Equation:y=Bottom+(Top-Bottom)/(1+(IC50/X)^ HillSlope).

[3] = system: lipopolysaccharide (LPS)-induced TNF-α secretion; experiment: Pharmacodynamic study of LPS-induced TNF-α secretion in SD rats; format: in vivo; settings: oral
Description: SD rats were orally administered with a solvent, dexamethasone (DEX, 0.5 mg/kg) as positive control, and the test compound, and were intraperitoneally injected with LPS (1 mg/kg) 0.5 hours after the administration. Animals were euthanized with CO2 2 h after LPS injection. Cardiac blood was collected into EDTA-K2 vacutainers, and a part of the anticoagulated blood was centrifuged and the plasma was frozen at −80° C.
Frozen plasma was thawed at room temperature and the concentration of TNF-α in the plasma was measured using ELISA kit.
The experimental data were expressed using mean±SEM, and TNF-α levels were analyzed by One-way ANOVA. Significant differences were considered for p<0.05.

[4] = system: human B-cell lymphoma OCI-LY10 cells subcutaneous xenograft tumor; experiment: In vivo pharmacodynamic study in OCI-LY10 subcutaneous xenograft tumor mouse model; settings: WX005 50 mpk, ibrutinib 10 mpk; for T/C value / TGI value: day 18 after start of administration, WX005 + ibrutinib 50+10 mpk
Description: The purpose of this experiment was to evaluate the efficacy of test drug WX005 on human B-cell lymphoma OCI-LY10 cell subcutaneous xenograft tumors in a CB17 SCID mouse model in vivo.
OCI-LY10 human B cell lymphoma cells, cultured in a 5% CO2 incubator at 37° C.
OCI-LY10 tumor cells were subcultured. 0.2 mL (1×10^7 cells) of OCI-LY10 cells (along with matrigel in a volume ratio of 1:1) was subcutaneously inoculated on the right back of each […], and the mice were administered in groups when the average tumor volume was 167 mm^3. Animals were monitored daily for health and death, and routine examinations include observation of the effect of tumor growth and drug treatment on the daily performance of the animals, such as behavioral activities, food and water intake, weight changes (twice weekly), tumor size (twice weekly for tumor volume), appearance signs, or other abnormal conditions.
The experimental indices were to investigate whether tumor growth was inhibited or delayed or the tumor was cured. The procedures comprised measuring tumor volume (TV), and calculating the tumor inhibiting therapeutic effect TGI (%) or relative tumor proliferation rate T/C (%) of the compound. TV=0.5a×b^2, where a and b represent the long diameter and short diameter of the tumor, respectively.
T/C%=TRTV/CRTV×100% (TRTV: RTV of treatment group; CRTV: RTV of negative control group). Relative tumor volume (RTV) was calculated based on the results of tumor measurement. The calculation formula was: RTV=Vt/V0, wherein Vo was the average tumor volume measured at the time of grouping and administration (i.e., d0), Vt was the average tumor volume at a certain measurement, and the data of TRTV and CRTV were obtained on the same day.

[5] = system: collagen-induced arthritis; experiment: In vivo efficacy assay of collagen-induced mouse arthritis; parameters: species or system DBA/1 mice; settings: 100 mg/kg twice daily for 14 days, oral gavage
Description: The purpose of this experiment was to investigate the therapeutic effect of compound WX005 in a mouse model of collagen-induced arthritis.
Animals: male DBA/1 mice aged 6-8 weeks; supplier: Vital River.
Grouping: Among 39 DBA/1 mice, 5 mice were randomly selected as normal controls, and the other 34 were immunized. The day of the first immunization was recorded as Day 0. During modeling, DBA/1 mice were anesthetized with isoflurane and sensitized by injecting 50 microliters of prepared collagen emulsion (containing 200 micrograms of CII) subcutaneously on the tail (2-3 cm from the root of the tail). On Day 23, 100 microliters of 0.3 mg/mL LPS solution (containing 30 micrograms of LPS) was intraperitoneally injected. Mice in the normal group were not immunized.
On Day 26, when the average clinical score reached about 0.8, 24 mice with clinical scores of 0-1 were selected, and the mice were randomly grouped into 3 treatment groups of 8 according to the body weight and the score. […]
Clinical observation: the general health and body weight changes of DBA/1 mice were observed daily from 7 days before immunization to Day 23 after immunization (recorded once weekly). After Day 23, mice were observed daily for health, morbidity, and weight changes (recorded at least three times a week) until the end of assay. […]

## CC(C)(O)CCc1cn2cc(NC(=O)c3cccc(C(F)(F)F)n3)c(N3CCOCC3)cc2n1 [WX001]
[1]
  IC50: 2.2 nM

## CC(C)(O)CCc1cn2cc(NC(=O)c3cccc(C(F)(F)F)n3)c(C(C)(C)O)cc2n1 [WX002]
[1]
  IC50: 0.4 nM
[2]
  IC50: 54 nM

## CC(C)(O)CCc1cn2cc(NC(=O)c3cccc(C(F)(F)F)n3)c(N3CCCCC3)cc2n1 [WX003]
[1]
  IC50: 1.2 nM

## CC(=O)N1CCN(c2cc3nc(CCC(C)(C)O)cn3cc2NC(=O)c2cccc(C(F)(F)F)n2)CC1 [WX004]
[1]
  IC50: 4.6 nM

## CC(C)(O)CCc1cn2cc(NC(=O)c3cccc(C(F)(F)F)n3)c(N3CCC(O)CC3)cc2n1 [WX005]
[1]
  IC50: 1.3 nM
[2]
  IC50: 114 nM
[3]; LPS 1 mg/kg i.p. 0.5 h after administration, plasma 2 h after LPS
  inhibitory effect on LPS-induced TNF-α secretion (plasma TNF-α): significant inhibitory effect
[3]; WX005 30 mpk vs dexamethasone (DEX) 0.5 mpk
  potency on LPS-induced TNF-α secretion compared with dexamethasone: potency equivalent to that of dexamethasone
[3]; doses 3 mpk, 10 mpk, 30 mpk
  dose-response of inhibition of LPS-induced TNF-α secretion: clear dose-response relationship
[4]; 18 days of treatment
  tolerability (body weight, abnormality) in tumor-bearing mice: good tolerability in animals
[4]
  T/C value: 53%
  TGI value: 66%
[5]
  body weight of the mice: increased steadily
  clinical score of arthritis (efficacy): excellent efficacy

## CC(C)(O)CCc1cn2cc(NC(=O)c3cccc(C(F)(F)F)n3)c(N3CCCC(O)C3)cc2n1 (stereo not shown) [WX006]
[1]
  IC50: 3.8 nM

## CC(C)(O)CCc1cn2cc(NC(=O)c3cccc(C(F)(F)F)n3)c(N3CCC(CO)CC3)cc2n1 [WX007]
[1]
  IC50: 0.9 nM

## CC(C)(O)CCc1cn2cc(NC(=O)c3cccc(C(F)(F)F)n3)c(N3CCNCC3)cc2n1 [WX008]
[1]
  IC50: 1.5 nM

## COC(=O)N1CCN(c2cc3nc(CCC(C)(C)O)cn3cc2NC(=O)c2cccc(C(F)(F)F)n2)CC1 [WX010]
[1]
  IC50: 4.6 nM

## CC(C)(O)CCc1cn2cc(NC(=O)c3cccc(C(F)(F)F)n3)c(C3CC3)cc2n1 [WX013]
[1]
  IC50: 3.6 nM

## CCOc1cc2nc(CCC(C)(C)O)cn2cc1NC(=O)c1cccc(C(F)(F)F)n1 [WX014]
[1]
  IC50: 1.7 nM

## CC(C)(O)CCc1cn2cc(NC(=O)c3cccc(C(F)(F)F)n3)c(N3CCC(C)(O)CC3)cc2n1 [WX015]
[1]
  IC50: 0.7 nM
[2]
  IC50: 201 nM

## CC(C)(O)CCc1cn2cc(NC(=O)c3cccc(C(F)(F)F)n3)c(N3CCC(C(N)=O)CC3)cc2n1 [WX016]
[1]
  IC50: 1.2 nM
[2]
  IC50: 181 nM

## CC(C)(O)CCc1cn2cc(NC(=O)c3cccc(C(F)(F)F)n3)c(N3CCC(CN)CC3)cc2n1 [WX017]
[1]
  IC50: 1.3 nM

## CC1(O)CCN(c2cc3nc(CCC(=O)O)cn3cc2NC(=O)c2cccc(C(F)(F)F)n2)CC1 [WX018]
[1]
  IC50: 9.8 nM

## NC(=O)C1CCN(c2cc3nc(CCC(=O)O)cn3cc2NC(=O)c2cccc(C(F)(F)F)n2)CC1 [WX019]
[1]
  IC50: 19.4 nM

## NCC1CCN(c2cc3nc(CCC(=O)O)cn3cc2NC(=O)c2cccc(C(F)(F)F)n2)CC1 [WX020]
[1]
  IC50: 20.5 nM

## O=C(O)CCc1cn2cc(NC(=O)c3cccc(C(F)(F)F)n3)c(N3CCC(CO)CC3)cc2n1 [WX021]
[1]
  IC50: 7.1 nM

## CS(=O)(=O)CCc1cn2cc(NC(=O)c3cccc(C(F)(F)F)n3)c(N3CCC(O)CC3)cc2n1 [WX023]
[1]
  IC50: 1.3 nM

## CC1(O)CCN(c2cc3nc(CCS(C)(=O)=O)cn3cc2NC(=O)c2cccc(C(F)(F)F)n2)CC1 [WX025]
[1]
  IC50: 0.5 nM

## C=CC(=O)N1CCC[C@@H](n2nc(-c3ccc(Oc4ccccc4)cc3)c3c(N)ncnc32)C1 [ibrutinib, reference compound]
[4]
  T/C value: 39%
  TGI value: 85%
